Assay results published in ChEMBL document CHEMBL1136997, “An atom economic synthesis and antitubercular evaluation of novel spiro-cyclohexanones” (2009).
Converted amounts (≈) assume the structure as drawn.

tested on: Mycobacterium tuberculosis; assay: Antimycobacterial activity against log phase culture of Mycobacterium tuberculosis H37Rv by agar dilution method; type: functional

SMILES | MIC [µg/mL]
O=C1c2cccc3cccc(c23)[C@]12N[C@@H](c1ccccc1)[C@H](c1ccc(Cl)cc1)[C@]21CCC/C(=C\c2ccc(Cl)cc2)C1=O | 6.25 (≈ 10.2 µM)
O=C1c2cccc3cccc(c23)[C@]12N1CCC[C@H]1[C@H](c1ccc(Cl)cc1)[C@]21CCC/C(=C\c2ccc(Cl)cc2)C1=O | 1.78 (≈ 3.08 µM)
Cc1ccc(/C=C2\CCC[C@@]3(C2=O)[C@@H](c2ccc(C)cc2)[C@H](c2ccccc2)N[C@@]32C(=O)c3cccc4cccc2c34)cc1 | 6.25 (≈ 10.9 µM)
Cc1ccc(/C=C2\CCC[C@@]3(C2=O)[C@@H](c2ccc(C)cc2)[C@@H]2CCCN2[C@@]32C(=O)c3cccc4cccc2c34)cc1 | 6.25 (≈ 11.6 µM)
COc1ccc(/C=C2\CCC[C@@]3(C2=O)[C@@H](c2ccc(OC)cc2)CN(C)[C@@]32C(=O)c3cccc4cccc2c34)cc1 | 25 (≈ 46 µM)
O=C1c2cccc3cccc(c23)[C@]12N1CCC[C@H]1[C@H](c1ccccc1Cl)[C@]21CCC/C(=C\c2ccccc2Cl)C1=O | 3.13 (≈ 5.41 µM)
O=C1c2cccc3cccc(c23)[C@]12N[C@@H](c1ccccc1)[C@H](c1ccccc1Cl)[C@]21CCC/C(=C\c2ccccc2Cl)C1=O | 0.78 (≈ 1.27 µM)
O=C1c2cccc3cccc(c23)[C@]12N1CSC[C@H]1[C@H](c1ccc(F)cc1)[C@]21CCC/C(=C\c2ccc(F)cc2)C1=O | 1.76 (≈ 3.12 µM)
CN1C[C@H](c2ccc(Cl)cc2)[C@]2(CCC/C(=C\c3ccc(Cl)cc3)C2=O)[C@]12C(=O)c1cccc3cccc2c13 | 12.5 (≈ 22.6 µM)
CN1C[C@H](c2ccccc2)[C@]2(CCC/C(=C\c3ccccc3)C2=O)[C@]12C(=O)c1cccc3cccc2c13 | 12.5 (≈ 25.8 µM)
O=C1c2cccc3cccc(c23)[C@]12N1CSC[C@H]1[C@H](c1ccc(Cl)cc1)[C@]21CCC/C(=C\c2ccc(Cl)cc2)C1=O | 6.25 (≈ 10.5 µM)
O=C1c2cccc3cccc(c23)[C@]12N[C@@H](c1ccccc1)[C@H](c1ccc(F)cc1)[C@]21CCC/C(=C\c2ccc(F)cc2)C1=O | 6.25 (≈ 10.7 µM)
Cc1ccccc1/C=C1\CCC[C@@]2(C1=O)[C@@H](c1ccccc1C)[C@@H]1CSCN1[C@@]21C(=O)c2cccc3cccc1c23 | 0.78 (≈ 1.4 µM)
Cc1ccc(/C=C2\CCC[C@@]3(C2=O)[C@@H](c2ccc(C)cc2)CN(C)[C@@]32C(=O)c3cccc4cccc2c34)cc1 | 25 (≈ 48.9 µM)
Cc1ccccc1/C=C1\CCC[C@@]2(C1=O)[C@@H](c1ccccc1C)CN(C)[C@@]21C(=O)c2cccc3cccc1c23 | 12.5 (≈ 24.4 µM)
CN1C[C@H](c2cccc(F)c2)[C@]2(CCC/C(=C\c3cccc(F)c3)C2=O)[C@]12C(=O)c1cccc3cccc2c13 | 12.5 (≈ 24.1 µM)
O=C1c2cccc3cccc(c23)[C@]12N[C@@H](c1ccccc1)[C@H](c1ccccc1)[C@]21CCC/C(=C\c2ccccc2)C1=O | 3.13 (≈ 5.74 µM)
O=C1c2cccc3cccc(c23)[C@]12N[C@@H](c1ccccc1)[C@H](c1ccc(Cl)cc1Cl)[C@]21CCC/C(=C\c2ccc(Cl)cc2Cl)C1=O | 0.4 (≈ 0.585 µM)
O=C1c2cccc3cccc(c23)[C@]12N1CSC[C@H]1[C@H](c1ccccc1Cl)[C@]21CCC/C(=C\c2ccccc2Cl)C1=O | 0.78 (≈ 1.31 µM)
O=C1c2cccc3cccc(c23)[C@]12N1CCC[C@H]1[C@H](c1ccc(F)cc1)[C@]21CCC/C(=C\c2ccc(F)cc2)C1=O | 1.78 (≈ 3.26 µM)
CN1C[C@H](c2ccc(Cl)cc2Cl)[C@]2(CCC/C(=C\c3ccc(Cl)cc3Cl)C2=O)[C@]12C(=O)c1cccc3cccc2c13 | 3.13 (≈ 5.04 µM)
Cc1ccccc1/C=C1\CCC[C@@]2(C1=O)[C@@H](c1ccccc1C)[C@H](c1ccccc1)N[C@@]21C(=O)c2cccc3cccc1c23 | 1.78 (≈ 3.1 µM)
O=C1c2cccc3cccc(c23)[C@]12N1CSC[C@H]1[C@H](c1ccc(Cl)cc1Cl)[C@]21CCC/C(=C\c2ccc(Cl)cc2Cl)C1=O | 0.4 (≈ 0.601 µM)
CN1C[C@H](c2cccc3ccccc23)[C@]2(CCC/C(=C\c3cccc4ccccc34)C2=O)[C@]12C(=O)c1cccc3cccc2c13 | 6.25 (≈ 10.7 µM)
Cc1ccc(/C=C2\CCC[C@@]3(C2=O)[C@@H](c2ccc(C)cc2)[C@@H]2CSCN2[C@@]32C(=O)c3cccc4cccc2c34)cc1 | 6.25 (≈ 11.2 µM)
O=C1c2cccc3cccc(c23)[C@]12N1CCC[C@H]1[C@H](c1ccccc1)[C@]21CCC/C(=C\c2ccccc2)C1=O | 12.5 (≈ 24.5 µM)
O=C1c2cccc3cccc(c23)[C@]12N1CSC[C@H]1[C@H](c1ccccc1)[C@]21CCC/C(=C\c2ccccc2)C1=O | 6.25 (≈ 11.8 µM)
CN1C[C@H](c2ccccc2Cl)[C@]2(CCC/C(=C\c3ccccc3Cl)C2=O)[C@]12C(=O)c1cccc3cccc2c13 | 6.25 (≈ 11.3 µM)
